Test results from ChEMBL document CHEMBL1201862, “PubChem BioAssay data set” (2004).
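Results reflect a 48-hour exposure of cells in 96-well plates to compound at five concentrations. GI50 = concentration required for 50% inhibition of growth.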 Activity calls are given as the source filed them. Cut-off read from the data, not from the text of the source: active = GI50 up to about 1.1 µM and inactive = higher.

Key:
Assay in all cases: NCI anticancer screen, dose series, 48 h
[1] = system: M14
[2] = system: UO-31
[3] = system: SN12C
[4] = system: SK-MEL-28
[5] = system: SK-OV-3
[6] = system: OVCAR-8
[7] = system: NCI-H460
[8] = system: LOX IMVI
[9] = system: HT-29
[10] = system: MOLT-4
[11] = system: NCI-H226
[12] = system: BT-549
[13] = system: HCT-15
[14] = system: EKVX
[15] = system: NCI-H522
[16] = system: UACC-257
[17] = system: SW-620
[18] = system: SF-539
[19] = system: HCT-116
[20] = system: RXF 393
[21] = system: TK-10
[22] = system: Hs-578T
[23] = system: K562
[24] = system: U-251
[25] = system: Malme-3M
[26] = system: CCRF-CEM
[27] = system: MCF7
[28] = system: SK-MEL-2
[29] = system: HOP-92
[30] = system: CAKI-1
[31] = system: OVCAR-5
[32] = system: OVCAR-3
[33] = system: KM12
[34] = system: MDA-MB-435
[35] = system: T47D
[36] = system: UACC-62
[37] = system: HCC 2998
[38] = system: 786-0
[39] = system: A549
[40] = system: ACHN
[41] = system: MDA-N
[42] = system: SNB-19
[43] = system: NCI-H23
[44] = system: IGROV-1
[45] = system: DU-145
[46] = system: HL-60
[47] = system: SF-268
[48] = system: SR
[49] = system: OVCAR-4
[50] = system: PC-3
[51] = system: NCI/ADR-RES
[52] = system: A498
[53] = system: HOP-62
[54] = system: SK-MEL-5
[55] = system: RPMI-8226
[56] = system: COLO 205
[57] = system: SF-295
[58] = system: SNB-75
[59] = system: MDA-MB-231

CCOC(=O)/C(=C\NCC(OCC)OCC)c1nc2ccccc2[nH]1 was tested, and the GI50 [1] was 36.1 µM (inactive), the GI50 [2] was 13.3 µM (inactive) and the GI50 [3] was 39.2 µM (inactive). The GI50 [4] was 26.8 µM (inactive), the GI50 [5] was 75 µM (inactive) and the GI50 [6] was 32.8 µM (inactive). For the same compound, the GI50 [7] was 23.1 µM (inactive), the GI50 [8] was 24.8 µM (inactive) and the GI50 [9] was 22.4 µM (inactive). The GI50 [10] was 17.1 µM (inactive), the GI50 [11] was 37.7 µM (inactive) and the GI50 [12] was 22.4 µM (inactive). The GI50 [13] was 10 µM, the GI50 [14] was 27.6 µM (inactive) and the GI50 [15] was 21.4 µM (inactive). The GI50 [16] was 25.1 µM (inactive), the GI50 [17] was 41.4 µM (inactive) and the GI50 [18] was 26.2 µM (inactive). For the same compound, the GI50 [19] was 29.6 µM (inactive), the GI50 [20] was 35.3 µM (inactive) and the GI50 [21] was 31.3 µM (inactive). The GI50 [22] was 35.6 µM (inactive), the GI50 [23] was 22.8 µM (inactive) and the GI50 [24] was 35.5 µM (inactive). For the same compound, the GI50 [25] was 25.8 µM (inactive), the GI50 [26] was 33.3 µM (inactive) and the GI50 [27] was 30.1 µM (inactive). The GI50 [28] was 22.3 µM (inactive), the GI50 [29] was 35.6 µM (inactive) and the GI50 [30] was 38.9 µM (inactive). The GI50 [31] was 48.6 µM (inactive), the GI50 [32] was 22 µM (inactive) and the GI50 [33] was 32.1 µM (inactive). The GI50 [34] was 25 µM (inactive), the GI50 [35] was 21.6 µM (inactive) and the GI50 [36] was 16.3 µM (inactive). For the same compound, the GI50 [37] was 20.1 µM (inactive), the GI50 [38] was 31.5 µM (inactive) and the GI50 [39] was 42.9 µM (inactive). For the same compound, the GI50 [40] was 35.2 µM (inactive), the GI50 [41] was 29 µM (inactive) and the GI50 [42] was 67.3 µM (inactive). For the same compound, the GI50 [43] was 21.4 µM (inactive), the GI50 [44] was 29 µM (inactive) and the GI50 [45] was 43.7 µM (inactive). For the same compound, the GI50 [46] was 23.9 µM (inactive), the GI50 [47] was 32.6 µM (inactive) and the GI50 [48] was 18.6 µM (inactive). The GI50 [49] was 31.9 µM (inactive), the GI50 [50] was 24 µM (inactive) and the GI50 [51] was 2.02 µM (inactive). For the same compound, the GI50 [52] was 48.6 µM (inactive), the GI50 [53] was 31.8 µM (inactive) and the GI50 [54] was 14.5 µM (inactive). The GI50 [55] was 18.7 µM (inactive), the GI50 [56] was 16.5 µM (inactive) and the GI50 [57] was 32.1 µM (inactive). For the same compound, the GI50 [58] was 22.2 µM (inactive).

C1=C(c2ccccc2)SC=C(c2ccccc2)S1 was tested, and the GI50 [1] was 39.8 µM (inactive), the GI50 [2] was 60.5 µM (inactive) and the GI50 [3] was 29.9 µM (inactive). For the same compound, the GI50 [4] was 49 µM (inactive), the GI50 [5] was 27.5 µM (inactive) and the GI50 [6] was 44.8 µM (inactive). For the same compound, the GI50 [7] was 29.5 µM (inactive), the GI50 [8] was 36.9 µM (inactive) and the GI50 [9] was 24.9 µM (inactive). For the same compound, the GI50 [10] was 25.3 µM (inactive), the GI50 [11] was 29 µM (inactive) and the GI50 [12] was 17.9 µM (inactive). For the same compound, the GI50 [13] was 26.2 µM, the GI50 [14] was 24.1 µM (inactive) and the GI50 [59] was 32.2 µM (inactive). For the same compound, the GI50 [16] was 57.7 µM (inactive), the GI50 [17] was 25.9 µM (inactive) and the GI50 [18] was 31.7 µM (inactive). The GI50 [19] was 44.5 µM (inactive), the GI50 [20] was 1.05 µM (active) and the GI50 [21] was 28.8 µM (inactive). The GI50 [22] was 44 µM (inactive), the GI50 [23] was 21 µM (inactive) and the GI50 [24] was 38.4 µM (inactive). For the same compound, the GI50 [25] was 45.5 µM (inactive), the GI50 [26] was 57.1 µM (inactive) and the GI50 [27] was 16.9 µM (inactive). For the same compound, the GI50 [29] was 17.1 µM (inactive), the GI50 [30] was 60.4 µM (inactive) and the GI50 [31] was 44.4 µM (inactive). The GI50 [32] was 33.7 µM (inactive), the GI50 [33] was 16.9 µM (inactive) and the GI50 [34] was 5.48 µM (inactive). For the same compound, the GI50 [35] was 53.3 µM (inactive), the GI50 [36] was 35.9 µM (inactive) and the GI50 [38] was > 100 µM (inactive). The GI50 [39] was 32.1 µM (inactive), the GI50 [40] was 60.5 µM (inactive) and the GI50 [41] was 6.17 µM (inactive). For the same compound, the GI50 [42] was > 100 µM (inactive), the GI50 [43] was 72.8 µM (inactive) and the GI50 [44] was 19.9 µM (inactive). The GI50 [45] was > 100 µM (inactive), the GI50 [46] was 65.9 µM (inactive) and the GI50 [47] was 28.3 µM (inactive). The GI50 [49] was 32.4 µM (inactive), the GI50 [50] was > 100 µM (inactive) and the GI50 [51] was 19.9 µM (inactive). For the same compound, the GI50 [52] was 17.9 µM (inactive), the GI50 [53] was > 100 µM (inactive) and the GI50 [54] was 19.6 µM (inactive). The GI50 [55] was 33.3 µM (inactive), the GI50 [56] was 30.1 µM (inactive) and the GI50 [57] was 29.2 µM (inactive). For the same compound, the GI50 [58] was 1.68 µM (inactive).
